Experimental data reported in patent US20060069123A1, “Substituted dipiperidine CCR2 antagonists” (priority 2004, published 2006).
Where two headings read alike, the source gives them in different places.

What was measured:
CCR2 = biological target: T1, CCR2 (Homo sapiens, UniProt P41597)
T1 sequence (P41597 1-360 isoform P41597-2): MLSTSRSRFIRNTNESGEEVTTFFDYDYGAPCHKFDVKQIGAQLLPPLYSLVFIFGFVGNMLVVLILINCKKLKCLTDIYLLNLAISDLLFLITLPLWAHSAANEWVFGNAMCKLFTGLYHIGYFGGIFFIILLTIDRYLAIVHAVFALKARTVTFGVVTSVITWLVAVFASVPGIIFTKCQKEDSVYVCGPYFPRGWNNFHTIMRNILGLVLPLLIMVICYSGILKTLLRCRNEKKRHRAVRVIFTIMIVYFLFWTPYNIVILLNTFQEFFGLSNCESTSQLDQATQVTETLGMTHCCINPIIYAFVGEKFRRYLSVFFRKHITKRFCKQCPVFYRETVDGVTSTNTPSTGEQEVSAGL

THP-1 cells [1] = assay: MCP-1 Induced Chemotaxis in THP-1 Cells; format: cell-based; settings: Homo sapiens, THP-1 cells, MCP-1 0.01 μg/mL, 3 hours, read-out: Inhibition of MCP-1 Induced Chemotaxis IC50
THP-1 cells [2] = settings: Homo sapiens
[3] = THP-1, read-out: Inhibition of MCP-1 Induced Calcium Ion Influx IC50
[4] = THP-1, read-out: Inhibition of MCP-1 Induced Calcium Ion Influx IC50, THP-1 cells, 0.2 μM MCP-1, FLIPR

Row | SMILES | IC50 (CCR2) [µM] | IC50 (THP-1 cells [1]) [µM] | IC50 (THP-1 cells [2]; [3]) [µM] | IC50 (CCR2; Inhibition of MCP-1 Binding IC50, 125I labeled MCP-1 binding to CCR2, THP-1 cells) [µM] | IC50 (THP-1 cells [1]; THP-1, 3 h) [µM] | IC50 (THP-1 cells [2]; [4]) [µM]
1 | Cc1ccc(NC(=O)N2CCC(C(C(=O)O)N3CCC(c4c[nH]c5ccccc45)CC3)CC2)cc1F (stereo not drawn) [Cpd 105, [1-(3-fluoro-4-methyl-phenylcarbamoyl)-piperidin-4-yl]-[4-(1H-indol-3-yl)-piperidin-1-yl]-acetic acid] | 0.09 | 0.01 | 0.13 |  |  | 
2 | Cc1ccc(NC(=O)N2CCC(C(C(=O)O)N3CCC(c4c[nH]c5ccccc45)CC3)CC2)cc1C(F)(F)F (stereo not drawn) [Cpd 106, [4-(1H-indol-3-yl)-piperidin-1-yl]-[1-(4-methyl-3-trifluoromethyl-phenylcarbamoyl)-piperidin-4-yl]-acetic acid] | 0.02 | 0.21 | 0.11 |  |  | 
3 | CS(=O)(=O)Nc1ccc2[nH]cc(C3CCN(C(C(=O)O)C4CCN(C(=O)Nc5ccc(Cl)c(Cl)c5)CC4)CC3)c2c1 (stereo not drawn) [Cpd 109, [1-(3,4-dichloro-phenylcarbamoyl)-piperidin-4-yl]-[4-(5-methanesulfonylamino-1H-indol-3-yl)-piperidin-1-yl]-acetic acid] | 0.02 | 0.03 | 0.03 |  |  | 
4 | O=C(/C=C/c1cc(F)c(F)c(F)c1)N1CCC(C(CO)N2CCC(c3c[nH]c4ccccc34)CC2)CC1 (stereo not drawn) [Cpd 112, (2E)-1-(4-{2-hydroxy-1-[4-(1H-indol-3-yl)-piperidin-1-yl]-ethyl}-piperidin-1-yl)-3-(3,4,5-trifluoro-phenyl)-propenone] | 0.004 | 0.004 | 0.0006 |  |  | 
5 | O=C(/C=C/c1ccc(F)c(F)c1)N1CCC(C(CO)N2CCC(c3c[nH]c4ccccc34)CC2)CC1 (stereo not drawn) [Cpd 113, (2E)-3-(3,4-difluoro-phenyl)-1-(4-{2-hydroxy-1-[4-(1H-indol-3-yl)-piperidin-1-yl]-ethyl}-piperidin-1-yl)-propenone] |  |  |  | 0.006 | 0.095 | 0.001
6 | O=C(O)C(C1CCN(C(=O)COc2ccc(Cl)c(Cl)c2)CC1)N1CCC(c2c[nH]c3ccccc23)CC1 (stereo not drawn) [Cpd 114, {1-[2-(3,4-dichloro-phenoxy)-acetyl]-piperidin-4-yl}-[4-(1H-indol-3-yl)-piperidin-1-yl]-acetic acid] | 0.35 |  |  |  | 0.29 | 0.21
7 | O=C(/C=C/c1cc(F)cc(F)c1)N1CCC(C(CO)N2CCC(c3c[nH]c4ccccc34)CC2)CC1 (stereo not drawn) [Cpd 116, (2E)-3-(3,5-difluoro-phenyl)-1-(4-{2-hydroxy-1-[4-(1H-indol-3-yl)-piperidin-1-yl]-ethyl}-piperidin-1-yl)-propenone] | 0.0006 | 0.0004 | 0.002 |  |  | 
8 | O=C(/C=C/c1ccc(Cl)c(Cl)c1)N1CCC(C(CO)N2CCC(c3c[nH]c4ccccc34)CC2)CC1 (stereo not drawn) [Cpd 121, (2E)-3-(3,4-dichloro-phenyl)-1-(4-{2-hydroxy-1-[4-(1H-indol-3-yl)-piperidin-1-yl]-ethyl}-piperidin-1-yl)-propenone] | 0.0002 | 0.012 | 0.0001 |  |  | 
9 | O=C(Nc1ccc(Cl)c(Cl)c1)N1CCC(C(CO)N2CCC(c3c[nH]c4ccccc34)CC2)CC1 (stereo not drawn) [Cpd 123, 4-{2-hydroxy-1-[4-(1H-indol-3-yl)-piperidin-1-yl]-ethyl}-piperidine-1-carboxylic acid (3,4-dichloro-phenyl)-amide] | 0.009 | 0.005 | 0.004 |  |  | 
10 | CSc1ccc(NC(=O)N2CCC(C(C(=O)O)N3CCC(c4c[nH]c5ccccc45)CC3)CC2)cc1 (stereo not drawn) [Cpd 127, [4-(1H-indol-3-yl)-piperidin-1-yl]-[1-(4-methylsulfanyl-phenylcarbamoyl)-piperidin-4-yl]-acetic acid] | 0.76 | 0.75 | 0.82 |  |  | 
11 | O=C(Nc1cc(F)cc(F)c1)N1CCC(C(CO)N2CCC(c3c[nH]c4ccccc34)CC2)CC1 (stereo not drawn) [Cpd 129, 4-{2-hydroxy-1-[4-(1H-indol-3-yl)-piperidin-1-yl]-ethyl}-piperidine-1-carboxylic acid (3,5-difluoro-phenyl)-amide] | 0.04 | 0.08 | 0.02 |  |  | 
12 | COc1cccc2c(C3CCN(C(CO)C4CCN(C(=O)/C=C/c5cc(F)c(F)c(F)c5)CC4)CC3)c[nH]c12 (stereo not drawn) [Cpd 133, (2E)-1-(4-{2-hydroxy-1-[4-(7-methoxy-1H-indol-3-yl)-piperidin-1-yl]-ethyl}-piperidin-1-yl)-3-(3,4,5-trifluoro-phenyl)-propenone] | 0.01 | 0.04 | 0.0008 |  |  | 
13 | CS(=O)(=O)N(CC(C1CCN(C(=O)/C=C/c2cc(F)cc(F)c2)CC1)N1CCC(c2c[nH]c3ccccc23)CC1)S(C)(=O)=O (stereo not drawn) [Cpd 134, N-{2-{1-[(2E)-3-(3,5-difluoro-phenyl)-acryloyl]-piperidin-4-yl}-2-[4-(1H-indol-3-yl)-piperidin-1-yl]-ethyl}-N-methanesulfonyl-methanesulfonamide] | 0.3 | 0.09 | 0.01 |  |  | 
14 | Cc1cc(C)cc(NC(=O)N2CCC(C(C(=O)O)N3CCC(c4c[nH]c5ccccc45)CC3)CC2)c1 (stereo not drawn) [Cpd 135, [1-(3,5-dimethyl-phenylcarbamoyl)-piperidin-4-yl]-[4-(1H-indol-3-yl)-piperidin-1-yl]-acetic acid] | 0.94 | 0.77 | 7.1 |  |  | 
15 | O=C(O)C(C1CCN(C(=O)Nc2cc(C(F)(F)F)cc(C(F)(F)F)c2)CC1)N1CCC(c2c[nH]c3ccccc23)CC1 (stereo not drawn) [Cpd 136, [1-(3,5-bis-trifluoromethyl-phenylcarbamoyl)-piperidin-4-yl]-[4-(1H-indol-3-yl)-piperidin-1-yl]-acetic acid] | 0.08 | 0.14 | 0.13 |  |  | 
16 | COc1ccc(C2CCN(C(CO)C3CCN(C(=O)/C=C/c4cc(F)cc(F)c4)CC3)CC2)cc1 (stereo not drawn) [Cpd 137, (2E)-3-(3,5-difluoro-phenyl)-1-(4-{2-hydroxy-1-[4-(4-methoxy-phenyl)-piperidin-1-yl]-ethyl}-piperidin-1-yl)-propenone] | 0.03 | 0.08 | 0.21 |  |  | 
17 | COc1ccc(C2CCN(C(CO)C3CCN(C(=O)/C=C/c4ccc(F)c(F)c4)CC3)CC2)cc1 (stereo not drawn) [Cpd 138, (2E)-3-(3,4-difluoro-phenyl)-1-(4-{2-hydroxy-1-[4-(4-methoxy-phenyl)-piperidin-1-yl]-ethyl}-piperidin-1-yl)-propenone] | 0.172 | 0.217 | 1.29 |  |  | 
18 | COc1ccc(C2CCN(C(CO)C3CCN(C(=O)/C=C/c4ccc(Cl)c(Cl)c4)CC3)CC2)cc1 (stereo not drawn) [Cpd 139, (2E)-3-(3,4-dichloro-phenyl)-1-(4-{2-hydroxy-1-[4-(4-methoxy-phenyl)-piperidin-1-yl]-ethyl}-piperidin-1-yl)-propenone] | 0.02 | 0.05 | 0.04 |  |  | 
19 | COc1ccc(C2CCN(C(CO)C3CCN(C(=O)Nc4ccc(F)c(F)c4)CC3)CC2)cc1 (stereo not drawn) [Cpd 141, 4-{2-hydroxy-1-[4-(4-methoxy-phenyl)-piperidin-1-yl]-ethyl}-piperidine-1-carboxylic acid (3,4-difluoro-phenyl)-amide] | 0.34 | 0.76 | 6.9 |  |  | 
20 | O=C(O)C(C1CCN(C(=O)Nc2ccc(SC(F)(F)F)cc2)CC1)N1CCC(c2c[nH]c3ccccc23)CC1 (stereo not drawn) [Cpd 142, [4-(1H-indol-3-yl)-piperidin-1-yl]-[1-(4-trifluoromethylsulfanyl-phenylcarbamoyl)-piperidin-4-yl]-acetic acid] | 0.005 | 0.06 | 0.03 |  |  | 
21 | CSc1cccc(NC(=O)N2CCC(C(C(=O)O)N3CCC(c4c[nH]c5ccccc45)CC3)CC2)c1 (stereo not drawn) [Cpd 144, [4-(1H-indol-3-yl)-piperidin-1-yl]-[1-(3-methylsulfanyl-phenylcarbamoyl)-piperidin-4-yl]-acetic acid] | 0.05 | 0.5 | 1.3 |  |  | 
22 | COC(=O)c1ccc2[nH]cc(C3CCN(C(C(=O)O)C4CCN(C(=O)/C=C/c5cc(F)c(F)c(F)c5)CC4)CC3)c2c1 (stereo not drawn) [Cpd 146, 3-[1-(carboxy-{1-[(2E)-3-(3,4,5-trifluoro-phenyl)-acryloyl]-piperidin-4-yl}-methyl)-piperidin-4-yl]-1H-indole-5-carboxylic acid methyl ester] | 0.007 | 0.053 | 0.05 |  |  | 
23 | O=C(O)c1ccc2[nH]cc(C3CCN(C(C(=O)O)C4CCN(C(=O)/C=C/c5cc(F)c(F)c(F)c5)CC4)CC3)c2c1 (stereo not drawn) [Cpd 147, 3-[1-(carboxy-{1-[(2E)-3-(3,4,5-trifluoro-phenyl)-acryloyl]-piperidin-4-yl}-methyl)-piperidin-4-yl]-1H-indole-5-carboxylic acid] | 0.15 | 0.04 | 0.6 |  |  | 
24 | O=C(/C=C/c1cc(F)c(F)c(F)c1)N1CCC(C(CO)N2CCC(c3c[nH]c4ncccc34)CC2)CC1 (stereo not drawn) [Cpd 153, (2E)-1-(4-{2-hydroxy-1-[4-(1H-pyrrolo[2,3-b]pyridin-3-yl)-piperidin-1-yl]-ethyl}-piperidin-1-yl)-3-(3,4,5-trifluoro-phenyl)-propenone] | 0.003 | 0.009 | 0.007 |  |  | 
